Key:
[1] = test system: Candida albicans; assay: Microdilution broth assay, minimum fungicidal concentration; assay type: cell-based
Excerpt: (§1) The usefulness of the compounds as antifungal agents particularly, for the treatment of mycotic infections may be illustrated with minimum fungicidal concentration (MFC) results with Compound IA in tests against Candida albicans, Candida tropicalis and Candida parapsilosis.
(§2) The activity may be seen in a microdilution broth assay employing Yeast Nitrogen Base (Difco) with 10% dextrose (YNBD) as the medium. In carrying out the assay, Compound Ia was solubilized in 10 percent dimethyl sulfoxide (DMSO) and diluted to 2560 μg/ml. The compounds were then diluted to 256 μg/ml in YNBD. 0.15 ml of the suspension was dispensed to the top row of a 96-well plate (each well containing 0.15 ml of YNDB) resulting in a drug concentration of 128 μg/ml. Two-fold dilutions were then made from the top row to obtain final drug concentrations ranging from 128 to 0.06 μg/ml.
(§3) The yeast cultures, maintained on Sabouraud dextrose agar were transferred to YM broth (Difco) and incubated overnight at 35° C. with shaking (250 rpm). After incubation, each culture was diluted in sterile water to yield a final concentration of 1-5×10^6 colony forming units (CFU)/ml.
(§4) 96-well microplates were inoculated using a MIC-2000 (Dynatech) which delivers […] per well yielding a final inoculum per well of 1.5-7.5×10^3 cells. The microplates were incubated at 35° C. for 24 hours. The minimum inhibitory concentrations (MICS) were recorded as the lowest concentrations of drug showing no visible growth.
(§5) After recording the MIC, the plates were shaken to resuspend the cells. Thereafter, […] samples from the wells in the 96-well microplate were transferred to a single well tray containing Sabouraud dextrose agar. The inoculated trays were incubated 24 hours at 28° C. and then read. The MFC is defined as the lowest concentration of drug showing no growth or less than 4 colonies per spot.

[2] = test system: Candida parapsilosis; assay: as above; assay type: cell-based
Excerpt: as §1, §2, §3, §4, §5

[3] = test system: Candida tropicalis; assay: as above; assay type: cell-based; conditions: Candida tropicalis MY 1012
Method: The usefulness of the compounds as antifungal agents particularly, for the treatment of mycotic infections may be illustrated with minimum fungicidal concentration (MFC) results with Compound IA in tests against Candida albicans, Candida tropicalis and Candida parapsilosis. The activity may be seen in a microdilution broth assay employing Yeast Nitrogen Base (Difco) with 10% dextrose (YNBD) as the medium. […] The compounds were then diluted to 256 μg/ml in YNBD. 0.15 ml of the suspension was dispensed to the top row of a 96-well plate (each well containing 0.15 ml of YNDB) resulting in a drug concentration of 128 μg/ml. Two-fold dilutions were then made from the top row to obtain final drug concentrations ranging from 128 to 0.06 μg/ml. The yeast cultures, maintained on Sabouraud dextrose agar were transferred to YM broth (Difco) and incubated overnight at 35° C. with shaking (250 rpm). After incubation, each culture was diluted in sterile water to yield a final concentration of 1-5×10^6 colony forming units (CFU)/ml. 96-well microplates were inoculated using a MIC-2000 (Dynatech) which delivers […] per well yielding a final inoculum per well of 1.5-7.5×10^3 cells. […] The minimum inhibitory concentrations (MICS) were recorded as the lowest concentrations of drug showing no visible growth. […] The inoculated trays were incubated 24 hours at 28° C. and then read. […]

[4] = Stability in aqueous media; assay type: physicochemical; conditions: physiological pH range

Row | Substance | Minimum Fungicidal Concentration ([1]; Candida albicans MY 1028) | Minimum Fungicidal Concentration ([1]; Candida albicans MY 1055) | Minimum Fungicidal Concentration ([1]; Candida albicans MY 1208) | Minimum Fungicidal Concentration ([1]; Candida albicans MY 1585) | Minimum Fungicidal Concentration ([1]; Candida albicans MY 1750) | Minimum Fungicidal Concentration ([1]; Candida albicans MY 1783) | Minimum Fungicidal Concentration ([2]; Candida parapsilosis MY 1008) | Minimum Fungicidal Concentration ([2]; Candida parapsilosis MY 1010) | Minimum Fungicidal Concentration [3] | stability in aqueous medium [4]
1 | 1-[4-hydroxy-N^2 -(10,12-dimethyl-1-oxo-tetradecyl)ornithine]-4-[3-hydroxy-homotyrosine]-5- [3-hydroxy-glutamine]echinocandin B [Compound Ia] | 0.5 µg/mL | 1 µg/mL | 2 µg/mL | 0.25 µg/mL | 0.25 µg/mL | 0.5 µg/mL | 8 µg/mL | 4 µg/mL | 1 µg/mL | exhibit the stability in aqueous medium desired
2 | 1-[4-hydroxy-N^2 -(10,12-dimethyl-1-oxo-tetradecyl)ornithine]-5-[3-hydroxy-glutamine]echino candin B [Compound Ib] |  |  |  |  |  |  |  |  |  | exhibit the stability in aqueous medium desired
